Source: US20080194551A1, “Acetylene Derivatives” (priority 2005, published 2008)

Columns and labels:
hmGluR5 = biological target: T1, hmGluR5 (Homo sapiens, UniProt P41594); assay: Inhibition of quisqualate-induced inositol phosphate turnover in hmGluR5 expressing cells; type: cell-based; conditions: agonist quisqualate, read-out: IC50 concentration, inhibition of quisqualate-induced inositol phosphate turnover
T1 construct: expressed in transfected cells
From the text: This can be determined in vitro for example at recombinant human metabotropic glutamate receptors, especially PLC-coupled subtypes thereof such as mGluR5, using different procedures like, for example, measurement of the inhibition of the agonist induced elevation of intracellular Ca^2+ concentration in accordance with L. P. Daggett et al., Neuropharm. Vol. 34, pages 871-886 (1995), P. J. Flor et al., J. Neurochem. Vol. 67, pages 58-63 (1996) or by determination to what extent the agonist induced elevation of the inositol phosphate turnover is inhibited as described by T. Knoepfel et al., Eur. J. Pharmacol. Vol. 288, pages 389-392 (1994), L. P. Daggett et al., Neuropharm. Vol. 67, pages 58-63 (1996) and references cited therein. Isolation and expression of human mGluR subtypes are described in U.S. Pat. No. 5,521,297. Selected agents of the invention show IC50 values for the inhibition of the agonist (e.g. glutamate or quisqualate) induced elevation of intracellular Ca2+ concentration or the agonist (e.g. glutamate or quisqualate) induced inositol phosphate turnover, measured in recombinant cells expressing hmGluR5a of about 1 nM to about 50 μM.
4-(3-Chloro-phenylamino)-1-(3-chloro-phenylethynyl)-cyclohexanol inhibits the quisqualate-induced inositol phosphate turnover in hmGluR5 expressing cells with an IC50 concentration of 4000 nM.

T1 sequence (P41594 21-1180 isoform P41594-2 limits assumed): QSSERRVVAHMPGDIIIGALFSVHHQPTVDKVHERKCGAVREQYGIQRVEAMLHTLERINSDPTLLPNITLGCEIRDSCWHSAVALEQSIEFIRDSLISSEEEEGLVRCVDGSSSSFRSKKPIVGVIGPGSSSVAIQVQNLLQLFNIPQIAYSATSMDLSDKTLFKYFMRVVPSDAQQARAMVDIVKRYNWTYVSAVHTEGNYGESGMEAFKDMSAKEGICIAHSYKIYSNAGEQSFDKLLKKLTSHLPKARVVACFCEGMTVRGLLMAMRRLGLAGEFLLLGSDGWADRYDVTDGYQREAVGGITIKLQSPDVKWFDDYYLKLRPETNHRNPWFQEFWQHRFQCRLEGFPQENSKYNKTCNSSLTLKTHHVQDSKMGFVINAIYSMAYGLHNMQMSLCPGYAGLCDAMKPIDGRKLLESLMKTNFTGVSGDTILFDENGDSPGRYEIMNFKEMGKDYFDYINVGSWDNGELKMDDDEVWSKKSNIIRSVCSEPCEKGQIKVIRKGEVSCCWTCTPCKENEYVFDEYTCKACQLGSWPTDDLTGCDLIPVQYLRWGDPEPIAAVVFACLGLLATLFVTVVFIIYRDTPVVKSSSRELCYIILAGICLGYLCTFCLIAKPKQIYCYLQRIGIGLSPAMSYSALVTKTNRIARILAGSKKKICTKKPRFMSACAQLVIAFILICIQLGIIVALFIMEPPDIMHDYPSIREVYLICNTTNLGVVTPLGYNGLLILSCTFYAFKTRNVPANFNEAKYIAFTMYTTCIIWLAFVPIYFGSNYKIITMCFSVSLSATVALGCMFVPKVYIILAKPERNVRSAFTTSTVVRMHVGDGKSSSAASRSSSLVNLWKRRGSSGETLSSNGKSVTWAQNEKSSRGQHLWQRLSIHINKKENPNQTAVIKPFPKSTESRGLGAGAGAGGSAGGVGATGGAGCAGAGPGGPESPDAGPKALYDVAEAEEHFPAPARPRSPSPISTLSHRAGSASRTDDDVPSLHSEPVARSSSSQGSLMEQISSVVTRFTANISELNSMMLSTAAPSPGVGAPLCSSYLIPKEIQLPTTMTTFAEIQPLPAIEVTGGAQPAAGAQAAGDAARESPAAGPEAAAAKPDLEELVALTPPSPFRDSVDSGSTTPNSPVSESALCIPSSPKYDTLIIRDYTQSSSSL

SMILES	IC50 (hmGluR5) [µM]	melting point [°C]
OC1(C#Cc2cccc(Cl)c2)CCC(Nc2cccc(Cl)c2)CC1 (centres unmarked) [Example 2.2, 4-(3-Chloro-phenylamino)-1-(3-chloro-phenylethynyl)-cyclohexanol]	4	
OC1(C#Cc2cccc(Cl)c2)CCC(Nc2cc(Cl)cc(Cl)c2)CC1 (centres unmarked) [Example 2.6, 4-(3,5-Dichloro-phenylamino)-1-(3-chloro-phenylethynyl)-cyclohexanol]		145 to 149
